# Laboratory results from EP4786466A1, “QUINAZOLINE DERIVATIVE, SALT THEREOF, AND PHARMACEUTICAL COMPOSITION COMPRISING SAME AS ACTIVE INGREDIENT” (Korea Research Institute of Chemical Technology, priority 2023, dated 2025).
# Read-outs that look alike come from different tables or passages of the source.
# Tests used:
# [1] = in vitro; settings: human
# Procedure: (§1) MCF7 breast cancer cell lines and MCF10A normal breast cancer cell lines were treated with serial dilutions of the compounds of the present invention ranging from 1 µM to 15.63 nM for 72 hours. Cell viability was measured by the WST-8 assay (Cyto XTM cell viability assay kit; LPS solution, Daejeon, Korea) according to the manufacturer's instructions.
# [2] = biological target: T1, Recombinant GST-TAG-MASTL (Homo sapiens, UniProt Q96GX5); experiment: HTRF-based kinase assay (HTRF KinEASE assay kit); format: biochemical; settings: for activity at 1 µM: read-out: MASTL activity (%) HTRF (1 µM)
# T1 construct: GST; purchased Thermo Fisher Scientific
# T1 sequence (Q96GX5 1-879): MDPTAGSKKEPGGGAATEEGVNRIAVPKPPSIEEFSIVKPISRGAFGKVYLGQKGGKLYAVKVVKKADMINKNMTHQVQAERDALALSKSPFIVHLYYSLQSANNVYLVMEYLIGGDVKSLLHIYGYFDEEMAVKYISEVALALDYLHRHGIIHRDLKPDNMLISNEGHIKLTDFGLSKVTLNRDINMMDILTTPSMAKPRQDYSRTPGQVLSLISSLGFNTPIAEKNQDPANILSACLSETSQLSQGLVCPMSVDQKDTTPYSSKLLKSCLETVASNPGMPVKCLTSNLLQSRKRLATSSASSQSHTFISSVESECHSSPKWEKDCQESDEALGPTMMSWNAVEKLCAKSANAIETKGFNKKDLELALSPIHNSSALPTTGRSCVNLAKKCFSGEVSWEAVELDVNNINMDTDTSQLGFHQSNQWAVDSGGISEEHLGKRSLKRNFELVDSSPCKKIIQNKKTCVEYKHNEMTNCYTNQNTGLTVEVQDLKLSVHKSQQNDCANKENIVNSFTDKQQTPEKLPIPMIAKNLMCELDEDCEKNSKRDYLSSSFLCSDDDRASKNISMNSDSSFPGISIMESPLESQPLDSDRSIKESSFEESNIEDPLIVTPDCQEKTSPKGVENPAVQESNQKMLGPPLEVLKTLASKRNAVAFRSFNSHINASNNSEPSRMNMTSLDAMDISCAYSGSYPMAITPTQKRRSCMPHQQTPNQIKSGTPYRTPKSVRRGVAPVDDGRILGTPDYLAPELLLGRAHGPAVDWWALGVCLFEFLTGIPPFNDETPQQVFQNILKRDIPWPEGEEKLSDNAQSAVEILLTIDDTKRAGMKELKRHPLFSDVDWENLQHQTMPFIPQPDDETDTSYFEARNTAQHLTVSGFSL
# Text: Recombinant GST-TAG-MASTL (Thermo Fisher Scientific, MA, USA) was used for HTRF-based kinase assays. The HTRF KinEASE assay kit (CisBio, MA, USA) was used according to the manufacturer's instructions.
# [3] = system: pENSA; experiment: pENSA level by immunofluorescence (described method: in vitro kinase analysis with GST-tag-MASTL and His-tag-ENSA); format: cell-based; settings: for pENSA (%) Immunofluor ecense (1 µM): compound 1 µM
# Procedure: Two recombinant GST-tag-MASTL (Thermo Fisher Scientific) and His-tag-ENSA (Sino Biological Inc., Beijing, China) were used for in vitro kinase analysis. In vitro kinase analysis was performed as described in the literature [Front Oncol 2020, 10, 571601, 39-202021-10-20doi:10.3389/fonc.2020.571601.].
# Phosphorylated ENSA (pENSA), which is activated by phosphorylation by MASTL, can be utilized as a biomarker as it is expected that its activity will be inhibited along with the inhibition of MASTL. In the cell viability assay, MCF7 refers to a breast cancer cell line, and MCF10A refers to a normal breast […] cell line.
# [4] = system: MCF7 breast cancer cell lines; experiment: Cell viability analysis, WST-8 assay, MCF7; settings: Homo sapiens, MCF7, 72 h; for viability at 1 µM: read-out: Cell viability (%) WST-8, MCF7 (1 µM), compound 1 µM, 72 hours
# Procedure: as §1
# [5] = HTRF, read-out: IC50(nM) MASTL activity
Structure (SMILES),viability at 1 µM ([1]; mcf10a cells),pENSA (%) Immunofluor ecense (1 µM) [3],viability at 1 µM [4],activity at 1 µM ([2]; compound 1 µM),also measured
"NCCCCNC(=O)c1ccc(Nc2nc(Nc3cc(C4CC4)[nH]n3)c3ccccc3n2)cc1 [4ac, M-(4-aminobutyl)-4-((4-((5-cyclopropyl-1G-pyrazol-3-yl)amino)quinazolin-2-yl)amino)benzamide.trifluoroacetic acid]",102%,149%,104%,–,activity at 1 µM [2]: 58.3%
"CC(C)(C)OC(=O)NCCCNC(=O)c1ccc(Nc2nc(Nc3cc(C4CC4)[nH]n3)c3ccccc3n2)cc1 [4x, sdqs-butyl (3-(4-((4-((5-cyclopropyl-1G-pyrazol-3-yl)amino)quinazolin-2-yl)amino)benzamido)propyl)carbamate]",80%,185%,75.8%,70.8%,–
"CC(C)(C)OC(=O)NCCCCNC(=O)c1ccc(Nc2nc(Nc3cc(C4CC4)[nH]n3)c3ccccc3n2)cc1 [4y, sdqs-butyl (4-(4-((4-((5-cyclopropyl-1G-pyrazol-3-yl)amino)quinazolin-2-yl)amino)benzamido)butyl)carbamate]",80.2%,164%,78.7%,75.3%,–
"CC(C)(C)OC(=O)NCCCCCNC(=O)c1ccc(Nc2nc(Nc3cc(C4CC4)[nH]n3)c3ccccc3n2)cc1 [4z, sdqs-butyl (5-(4-((4-((5-cyclopropyl-1G-pyrazol-3-yl)amino)quinazolin-2-yl)amino)benzamido)pentyl)carbamate]",77.7%,188%,86.3%,85.3%,–
"CC(C)(C)OC(=O)N1CCC2(CC1)CN(c1nc(Nc3cc(C4CC4)[nH]n3)c3ccccc3n1)C2 [6d, sdqs-butyl 2-(4-((5-cyclopropyl-1G-pyrazol-3-yl)amino)quinazolin-2-yl)-2,7-diazaspiro[3.5]nonane-7-carboxylate]",104%,96.4%,88.6%,48%,–
"CC(C)(C)OC(=O)N1C2CCC1CN(c1nc(Nc3cc(C4CC4)[nH]n3)c3ccccc3n1)C2 [19' (B), sdqs-butyl 3-(4-((5-cyclopropyl-1G-pyrazol-3-yl)amino)quinazolin-2-yl)-3,8-diazabicyclo[3.2.1]octane-8-carboxylate]",101%,74.7%,74.8%,32.2%,"IC50 [2, 5]: 282 nM"
"Clc1nc(Nc2cc(C3CC3)[nH]n2)c2ccccc2n1 [compound 2a, 2-chloro-M-(5-cyclopropyl-1G-pyrazol-3-yl)quinazolin-4-amine]",93.3%,105%,106%,73.4%,–
"CC(C)(C)OC(=O)Nc1cccc(Nc2nc(Nc3ccc(CC#N)cc3)nc3ccccc23)c1 [compound 3m, sdqs-butyl (3-((2-((4-(cyanomethyl)phenyl)amino)quinazolin-4-yl)amino)phenyl)carbamate]",91.7%,85%,116%,117%,–
"Brc1ccc(Nc2nc(Nc3cc(C4CC4)[nH]n3)c3ccccc3n2)cc1 [compound 4b, M^2-(4-bromophenyl)-M^4-(5-cyclopropyl-1G-pyrazol-3-yl)quinazoline-2,4-diamine]",68.2%,82%,47.7%,43.2%,"IC50 ([2]; HTRF, unit µM, read-out: IC50 MASTL activity): 1400 nM; IC50 ([3]; unit µM, read-out: IC50 pENSA): 1.1 µM"
"Fc1cc(Br)ccc1Nc1nc(Nc2cc(C3CC3)[nH]n2)c2ccccc2n1 [compound 4c, M^2-(4-bromo-2-fluorophenyl)-M^4-(5-cyclopropyl-1G-pyrazol-3-yl)quinazoline-2,4-diamine]",83.3%,69%,50.8%,47.1%,IC50 ([3]; read-out: IC50(nM) pENSA): 0.85 µM
"c1ccc2c(Nc3cc(C4CC4)[nH]n3)nc(Nc3ccc4cn[nH]c4c3)nc2c1 [compound 4de, N^4-(5-cyclopropyl-1H-pyrazol-3-yl)-N^2-(1H-indazol-6-yl)quinazoline-2,4-diamine]",–,–,44.2%,31.8%,viability at 1 µM [1]: 24%
"c1ccc2c(Nc3cc(C4CC4)n[nH]3)nc(Nc3ccc4nc[nH]c4c3)nc2c1 [compound 4df, N^2-(1H-benzo[d]imidazol-5-yl)-N^4-(5-cyclopropyl-1H-pyrazol-3-yl)quinazoline-2,4-diamine]",–,–,78.4%,31.8%,viability at 1 µM [1]: 4.8%
"c1ccc2c(Nc3cc(C4CC4)[nH]n3)nc(Nc3cnc4[nH]ccc4c3)nc2c1 [compound 4dg, N^4-(5-cyclopropyl-1H-pyrazol-3-yl)-N^2-(1H-pyrrolo[2,3-b]pyridin-5-yl)quinazoline-2,4-diamine]",–,–,49%,37.9%,viability at 1 µM [1]: 12%
"c1ccc2c(Nc3cc(C4CC4)[nH]n3)nc(Nc3cnc4cccnn34)nc2c1 [compound 4dh, N^4-(5-cyclopropyl-1H-pyrazol-3-yl)-N^2-(imidazo[1,2-b]pyridazin-3-yl)quinazoline-2,4-diamine]",–,–,116%,88.7%,viability at 1 µM [1]: 111%
"O=C1Cc2cc(Nc3nc(Nc4cc(C5CC5)[nH]n4)c4ccccc4n3)ccc2N1 [compound 4di, 5-((4-((5-cyclopropyl-1G-pyrazol-3-yl)amino)quinazolin-2-yl)amino)indolin-2-one]",12.1%,51.1%,55.4%,38.8%,–
"c1ccc2c(Nc3cc(C4CC4)[nH]n3)nc(Nc3ccc(Cc4nnn[nH]4)cc3)nc2c1 [compound 4e, M^2-(4-((1G-tetrazol-5-yl)methyl)phenyl)-M^4-(5-cyclopropyl-1G-pyrazol-3-yl)quinazoline-2,4-diamine]",–,90.7%,–,–,"viability at 1.25 µM ([1]; mcf10a cells): 110%; IC50 [2, 5]: 164 nM; activity at 10 µM ([2]; footnote b: concentration 10 µM, read-out: MASTL activity (%) HTRF): 15.1%; viability at 1.25 µM ([4]; read-out: Cell viability (%) WST-8, MCF7, footnote a: concentration 1.25 µM, 72 hours): 112%"
"N#CCc1ccc(C2=CCN(c3nc(Nc4cc(C5CC5)[nH]n4)c4ccccc4n3)CC2)cc1F [compound 6n, 2-(4-(1-(4-((5-cyclopropyl-1G-pyrazol-3-yl)amino)quinazolin-2-yl)-1,2,3,6-tetrahydropyridin-4-yl)-2-fluorophenyl)acetonitrile]",116%,–,110%,–,IC50 [2]: 121 nM; activity at 1 µM [2]: 30.8%
"N#Cc1cc(Cl)ccc1C1=CCN(c2nc(Nc3cc(C4CC4)[nH]n3)c3ccccc3n2)CC1 [compound 6o, 5-chloro-2-(1-(4-((5-cyclopropyl-1G-pyrazol-3-yl)amino)quinazolin-2-yl)-1,2,3,6-tetrahydropyridin-4-yl)benzonitrile]",24.9%,–,48.4%,–,activity at 1 µM [2]: 61.2%
"N#Cc1ccccc1S(=O)(=O)N1CC2CC1CN2c1nc(Nc2cc(C3CC3)[nH]n2)c2ccccc2n1 (stereo not shown) [compound 15v, 2-((5-(4-((5-cyclopropyl-1G-pyrazol-3-yl)amino)quinazolin-2-yl)-2,5-diazabicyclo[2.2.1]heptan-2-yl)sulfonyl)benzonitrile]",81.8%,–,80.5%,–,IC50 [2]: 52.7 nM; activity at 1 µM [2]: 29.5%
"O=C1CSC(Nc2nc(Nc3ccccc3)nc3ccccc23)=N1 [compound 26b, 2-((2-(phenylamino)quinazolin-4-yl)amino)thiazol-4(5H)-one]",–,–,95.8%,112%,viability at 1 µM [1]: 98.8%
